Results as given in ChEMBL document CHEMBL6103645, “Modular Synthesis of Bioactive Selenoheterocycles for Efficient Cancer Therapy via Electrochemical Selenylation/Cyclization” (J Med Chem, 2025).
Calls of active or inactive are those of the source. No cut-off for these calls is given here.

How the values were obtained:
[1] = Hemolytic activity in BALB/c mouse Red blood cells assessed as hemolysis at 10 to 100 uM incubated for 2 hrs; format: toxicity, cell-based, Erythrocyte; details: dose 10-100 µM, read-out: Activity
[2] = tested on: NCI-H460; test: Inhibition of colony formation in human NCI-H460 cells assessed as reduction in colony formation rate upto 12.5 uM incubated for 14 days by crystal violet staining based analysis; format: functional, cell-based; details: time 14.0 day
[3] = Toxicity in male athymic nude mouse assessed as liver metastasis at 5 to 20 mg/kg, iv administered every 2 days and measured after 2 weeks by H and E staining based analysis; format: organism-based; details: in vivo, 336 h, dose 5-20 mg/kg
[4] = tested on: NCI-H460; test: Antitumor activity against human NCI-H460 cells xenografted in athymic nude mouse assessed as tumor growth inhibition at 5 mg/kg, iv administered every 2 days and measured after 2 weeks; format: functional; details: NCI-H460, 336 h, read-out: TGI
[5] = tested on: NCI-H460; test: Antitumor activity against human NCI-H460 cells xenografted in athymic nude mouse assessed as tumor growth inhibition at 10 mg/kg, iv administered every 2 days and measured after 2 weeks; format: functional; details: NCI-H460, 336 h, read-out: TGI
[6] = Toxicity in male athymic nude mouse assessed as lung damage at 20 to 80 mg/kg, iv administered every 2 days and measured after 2 weeks; format: organism-based; details: in vivo, 336 h, dose 20-80 mg/kg
[7] = tested on: NCI-H460; test: Antitumor activity against human NCI-H460 cells xenografted in athymic nude mouse assessed as change in tumor weight at 10 to 20 mg/kg, iv administered every 2 days and measured after 2 weeks; format: functional, organism-based; details: dose 10-20 mg/kg
[8] = tested on: NCI-H460; test: Anti-tumor activity against DDX10 knockdown human NCI-H460 cells assessed as inhibition of cell viability; format: functional, cell-based
[9] = tested on: NCI-H460; test: Antitumor activity against human NCI-H460 cells xenografted in athymic nude mouse assessed as tumor growth inhibition at 20 mg/kg, iv administered every 2 days and measured after 2 weeks; format: functional; details: NCI-H460, 336 h, read-out: TGI
[10] = tested on: NCI-H460; test: Inhibition of cell invasion in human NCI-H460 cells assessed as decrease in number of invading cells at 500 nM incubated for 48 hrs by transwell assay; format: functional, cell-based
[11] = Toxicity in male athymic nude mouse assessed as liver damage at 20 to 80 mg/kg, iv administered every 2 days and measured after 2 weeks; format: organism-based; details: in vivo, 336 h, dose 20-80 mg/kg
[12] = tested on: NCI-H460; test: Inhibition of epithelial mesenchymal transition in human NCI-H460 cells assessed as decrease in N-cadherin protein expression by Western blotting analysis; format: functional, cell-based
[13] = Toxicity in male athymic nude mouse assessed as heart damage at 20 to 80 mg/kg, iv administered every 2 days and measured after 2 weeks; format: organism-based; details: in vivo, 336 h, dose 20-80 mg/kg
[14] = Toxicity in male athymic nude mouse assessed as morphological changes in liver at 5 to 20 mg/kg, iv administered every 2 days and measured after 2 weeks by H and E staining based analysis; format: organism-based; details: in vivo, 336 h, dose 5-20 mg/kg
[15] = tested on: NCI-H460; test: Induction of DNA damage in human NCI-H460 cells assessed as increase in gammaH2AX positive cells by immunofluorescence analysis; format: functional, cell-based
[16] = tested on: NCI-H460; test: Induction of DNA damage in human NCI-H460 cells assessed as increase in gammaH2AX positive cells by DAPI staining based confocal laser scanning microscopic analysis; format: functional, cell-based
[17] = Toxicity in iv dosed BALB/c mouse assessed as maximum tolerated dose administered every 2 days and measured after 2 weeks; format: organism-based; details: in vivo
[18] = tested on: NCI-H460; test: Induction of apoptosis in human NCI-H460 cells assessed as increase in BAX level at 500 nM incubated for 24 hrs by Western blot analysis; format: functional, cell-based
[19] = tested on: NCI-H460; test: Antitumor activity against human NCI-H460 cells xenografted in iv dosed athymic nude mouse assessed as tumor growth inhibition administered every 2 days and measured after 2 weeks; format: functional, organism-based; details: dose 5-20 mg/kg
[20] = Toxicity in male athymic nude mouse assessed as tumor necrosis at 5 to 20 mg/kg, iv administered every 2 days and measured after 2 weeks by H and E staining based analysis; format: organism-based; details: in vivo, 336 h, dose 5-20 mg/kg
[21] = tested on: NCI-H460; test: Antitumor activity against human NCI-H460 cells xenografted in athymic nude mouse assessed as change in tumor weight at 5 mg/kg, iv administered every 2 days and measured after 2 weeks; format: functional, organism-based
[22] = tested on: HT-29; test: Anti-tumor activity against human HT-29 cells assessed as cell viability incubated for 48 hrs by CCK-8 assay; format: functional, cell-based
[23] = Toxicity in male athymic nude mouse assessed as morphological changes in lung at 5 to 20 mg/kg, iv administered every 2 days and measured after 2 weeks by H and E staining based analysis; format: organism-based; details: in vivo, 336 h, dose 5-20 mg/kg
[24] = Hemolytic activity in BALB/c mouse Red blood cells assessed as effect on morphological structure at 10 to 100 uM incubated for 2 hrs; format: toxicity, cell-based; details: erythrocyte, dose 10-100 µM
[25] = tested on: NCI-H460; test: Downregulation of DDX10 expression in human NCI-H460 cells; format: functional, cell-based
[26] = tested on: NCI-H460; test: Antitumor activity against human NCI-H460 cells xenografted in athymic nude mouse assessed as increase in gamma-H2AX level in tumor at 20 mg/kg, iv administered every 2 days and measured after 2 weeks by immunofluorescence assay; format: functional, organism-based
[27] = Toxicity in male athymic nude mouse assessed as spleen damage at 20 to 80 mg/kg, iv administered every 2 days and measured after 2 weeks; format: organism-based; details: in vivo, 336 h, dose 20-80 mg/kg
[28] = tested on: NCI-H460; test: Antitumor activity against human NCI-H460 cells xenografted in athymic nude mouse assessed as increase in gamma-H2AX level in tumor at 5 mg/kg, iv administered every 2 days and measured after 2 weeks by immunofluorescence assay; format: functional, organism-based
[29] = tested on: NCI-H460; test: Induction of apoptosis in human NCI-H460 cells assessed as increase in caspase-3 level at 500 nM incubated for 24 hrs by Western blot analysis; format: functional, cell-based
[30] = tested on: NCI-H460; test: Effect on DDX10 level in human NCI-H460 cells by TPP analysis; format: functional, cell-based
[31] = tested on: NCI-H460; test: Upregulation of gamma-H2AX expression in human NCI-H460 cells by Western blot analysis; format: functional, cell-based
[32] = Toxicity in male athymic nude mouse assessed as change in body weight at 5 to 20 mg/kg, iv administered every 2 days and measured after 2 weeks; format: organism-based; details: in vivo, 336 h, dose 5-20 mg/kg
[33] = Toxicity in male athymic nude mouse assessed as morphological changes in spleen at 5 to 20 mg/kg, iv administered every 2 days and measured after 2 weeks by H and E staining based analysis; format: organism-based; details: in vivo, 336 h, dose 5-20 mg/kg
[34] = tested on: NCI-H460; test: Induction of apoptosis in human NCI-H460 cells assessed as apoptosis rate at 500 nM incubated for 24 hrs by annexin V-FITC/PI staining based flow cytometry analysis relative to control; format: functional
[35] = tested on: NCI-H460; test: Induction of apoptosis in human NCI-H460 cells assessed as downregulation of Bcl2 expression at 500 nM incubated for 24 hrs by Western blot analysis; format: functional, cell-based
[36] = tested on: NCI-H460; test: Antitumor activity against human NCI-H460 cells xenografted in athymic nude mouse assessed as increase in gamma-H2AX level in tumor at 20 mg/kg, iv administered every 2 days and measured after 2 weeks by Western blot assay; format: functional, organism-based
[37] = biological target: Probable ATP-dependent RNA helicase DDX10 (Homo sapiens) (UniProt Q13206); test: Binding affinity to DDX10 human NCI-H460 cells incubated for 60 mins at 37 to 67 degreeC by CETSA assay; format: cell-based
[38] = tested on: HeLa; test: Anti-tumor activity against human HeLa cells assessed as cell viability incubated for 48 hrs by CCK-8 assay; format: functional, cell-based
[39] = tested on: NCI-H460; test: Anti-tumor activity against human NCI-H460 cells assessed as cell viability incubated for 48 hrs by CCK-8 assay; format: functional, cell-based; details: NCI-H460, 48 h
[40] = tested on: NCI-H460; test: Antitumor activity against human NCI-H460 cells xenografted in athymic nude mouse assessed as change in tumor volume at 5 mg/kg, iv administered every 2 days and measured after 2 weeks; format: functional, organism-based
[41] = Toxicity in male athymic nude mouse assessed as morphological changes in heart at 5 to 20 mg/kg, iv administered every 2 days and measured after 2 weeks by H and E staining based analysis; format: organism-based; details: in vivo, 336 h, dose 5-20 mg/kg
[42] = Toxicity in male athymic nude mouse assessed as change in body weight at 20 to 80 mg/kg, iv administered every 2 days and measured after 2 weeks; format: organism-based; details: in vivo, 336 h, dose 20-80 mg/kg
[43] = Toxicity in male athymic nude mouse assessed as lung metastasis at 5 to 20 mg/kg, iv administered every 2 days and measured after 2 weeks by H and E staining based analysis; format: organism-based; details: in vivo, 336 h, dose 5-20 mg/kg
[44] = tested on: MCF7; test: Anti-tumor activity against human MCF7 cells assessed as cell viability incubated for 48 hrs by CCK-8 assay; format: functional, cell-based
[45] = Toxicity in male athymic nude mouse assessed as morphological changes in kidney at 5 to 20 mg/kg, iv administered every 2 days and measured after 2 weeks by H and E staining based analysis; format: organism-based; details: in vivo, 336 h, dose 5-20 mg/kg
[46] = tested on: NCI-H460; test: Inhibition of epithelial mesenchymal transition in human NCI-H460 cells assessed as increase in E-cadherin protein expression by Western blotting analysis; format: functional, cell-based
[47] = Toxicity in male athymic nude mouse assessed as kidney damage at 20 to 80 mg/kg, iv administered every 2 days and measured after 2 weeks; format: organism-based; details: in vivo, 336 h, dose 20-80 mg/kg
[48] = tested on: NCI-H460; test: Anti-migratory activity against human NCI-H460 cells assessed as inhibition of cell migration at 500 nM measured for 48 hrs by wound healing assay; format: functional, cell-based

Chain of Probable ATP-dependent RNA helicase DDX10 (Homo sapiens) (Q13206 whole entry): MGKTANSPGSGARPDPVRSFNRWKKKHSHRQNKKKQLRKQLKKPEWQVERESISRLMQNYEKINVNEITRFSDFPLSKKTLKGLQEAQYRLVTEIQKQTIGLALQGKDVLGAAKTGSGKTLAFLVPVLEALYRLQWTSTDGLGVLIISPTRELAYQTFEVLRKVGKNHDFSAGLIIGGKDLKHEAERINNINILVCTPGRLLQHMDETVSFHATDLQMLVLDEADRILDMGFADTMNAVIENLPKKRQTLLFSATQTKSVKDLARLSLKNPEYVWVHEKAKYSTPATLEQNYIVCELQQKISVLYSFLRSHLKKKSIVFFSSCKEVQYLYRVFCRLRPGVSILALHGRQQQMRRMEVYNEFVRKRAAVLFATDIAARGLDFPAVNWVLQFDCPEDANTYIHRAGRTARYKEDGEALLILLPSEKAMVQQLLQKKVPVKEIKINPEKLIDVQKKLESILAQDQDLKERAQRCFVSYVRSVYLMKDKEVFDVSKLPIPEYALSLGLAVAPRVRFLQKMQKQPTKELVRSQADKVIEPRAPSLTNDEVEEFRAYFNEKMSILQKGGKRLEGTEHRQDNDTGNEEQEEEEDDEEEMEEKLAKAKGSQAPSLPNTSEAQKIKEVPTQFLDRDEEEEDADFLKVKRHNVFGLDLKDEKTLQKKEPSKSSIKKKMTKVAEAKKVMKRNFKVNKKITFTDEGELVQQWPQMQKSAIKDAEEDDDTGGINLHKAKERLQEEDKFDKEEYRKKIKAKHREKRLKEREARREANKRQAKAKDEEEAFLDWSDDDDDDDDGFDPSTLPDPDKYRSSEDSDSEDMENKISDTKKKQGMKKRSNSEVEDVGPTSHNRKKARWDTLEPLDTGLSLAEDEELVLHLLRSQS

SMILES: COc1ccc([Se]c2c(-c3ccccc3)ncc3cccnc23)cc1
- hemolysis at 2 h, 100 µM [1]: < 1%
- inhibition [2]: Active
- Activity [3]: Non-toxic
- inhibition in vivo at 5 mg/kg [4]: 60%
- inhibition in vivo at 10 mg/kg [5]: 78%
- Activity [6]: Non-toxic
- Activity [7]: inactive
- Activity [8]: Active
- inhibition in vivo at 20 mg/kg [9]: 88%
- inhibition [10]: Active
- Activity [11]: Non-toxic
- N-cadherin expression decrease (qualitative activity) [12]: Active
- Activity [13]: Non-toxic
- Activity [14]: Non-toxic
- Activity [15]: Active
- Activity [16]: Active
- MTD at 336 h [17]: 160 mg/kg
- Activity [18]: Active
- TGI [19]: Dose-dependent-effect
- Activity [20]: Non-toxic
- Activity [21]: Active
- Activity [22]: inactive
- Activity [23]: Non-toxic
- Activity [24]: Non-toxic
- Activity [25]: Active
- Activity [26]: Active
- Activity [27]: Non-toxic
- Activity [28]: Active
- Activity [29]: Active
- Activity [30]: Active
- Activity [31]: Active
- Activity [32]: Non-toxic
- Activity [33]: Non-toxic
- Activity [34]: 42.6%
- Activity [35]: Active
- Activity [36]: Active
- Activity [37]: Active
- Activity [38]: inactive
- IC50 [39]: 1.59 µM
- Activity [40]: Active
- Activity [41]: Non-toxic
- Activity [42]: Non-toxic
- Activity [43]: Non-toxic
- Activity [44]: inactive
- Activity [45]: Non-toxic
- inhibition [46]: Active
- Activity [47]: Non-toxic
- Activity [48]: Active

SMILES: COc1ccc([Se]c2c(-c3ccccc3)ncc3ccc(OC)cc23)cc1
- hemolysis at 2 h, 100 µM [1]: < 1%
- inhibition [2]: Active
- inhibition [10]: Active
- N-cadherin expression decrease (qualitative activity) [12]: Active
- Activity [15]: Active
- Activity [16]: Active
- Activity [18]: Active
- Activity [22]: inactive
- Activity [24]: Non-toxic
- Activity [29]: Active
- Activity [31]: Active
- Activity [34]: 31.5%
- Activity [35]: Active
- Activity [38]: inactive
- IC50 [39]: 5.9 µM
- Activity [44]: inactive
- inhibition [46]: Active
- Activity [48]: Active

SMILES: COc1ccc([Se]c2c(-c3ccccc3)ncc3ccccc23)cc1
- hemolysis at 2 h, 100 µM [1]: < 1%
- inhibition [2]: Active
- inhibition [10]: Active
- N-cadherin expression decrease (qualitative activity) [12]: Active
- Activity [15]: Active
- Activity [16]: Active
- Activity [18]: Active
- Activity [22]: inactive
- Activity [24]: Non-toxic
- Activity [29]: Active
- Activity [31]: Active
- Activity [34]: 20.8%
- Activity [35]: Active
- Activity [38]: inactive
- IC50 [39]: 6.39 µM
- Activity [44]: inactive
- inhibition [46]: Active
- Activity [48]: Active
